Consider 5 compounds from patent US11324724B2, “N-(2,2-difluoroethyl)-N-[(pyrimidinylamino)propanyl]arylcarboxamides” (Boehringer Ingelheim International GmbH, priority 2017, dated 2022).

In the assay the target is T1, human orexin 2 receptor (Homo sapiens, UniProt O43614).
T1 construct: stably expressing the full-length human orexin 2 receptor; expressed in transfected cells; host or cells: CHO-K1 (CHO-K1/hOx2), co-expressing aequorin
T1 sequence (O43614 1-444): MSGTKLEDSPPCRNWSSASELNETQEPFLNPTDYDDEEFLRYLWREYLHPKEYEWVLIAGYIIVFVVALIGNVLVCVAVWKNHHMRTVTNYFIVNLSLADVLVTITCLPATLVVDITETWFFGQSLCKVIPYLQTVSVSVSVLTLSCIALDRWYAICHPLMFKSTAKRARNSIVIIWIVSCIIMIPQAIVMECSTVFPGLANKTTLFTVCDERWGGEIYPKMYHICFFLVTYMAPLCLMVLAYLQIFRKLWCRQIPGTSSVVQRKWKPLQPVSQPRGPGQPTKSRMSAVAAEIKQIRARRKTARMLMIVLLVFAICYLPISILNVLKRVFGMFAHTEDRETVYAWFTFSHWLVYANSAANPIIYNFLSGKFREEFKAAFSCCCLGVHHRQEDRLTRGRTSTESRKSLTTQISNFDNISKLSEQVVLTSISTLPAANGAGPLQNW
As to the kind of experiment: Assay B: in vitro testing of OX2R potency, OX2R IP1. To be noted: 0.5 nM Orexin A concentration. It counts as cell-based. An excerpt:
Activation of the orexin receptors expressed in cell lines results in an increase in intracellular IP3 concentration. IP1, a downstream metabolite of IP3, accumulates in cells following receptor activation and is stable in the presence of LiCl. Using Homogeneous Time-Resolved Fluorescence technology with Lumi4-Tb cryptate (commercially available from Cisbio Bioassay.) and a suitable fluorescence plate reader. This functional response is detectable and quantifiable as described in Trinquet et al. Anal. Biochem. 2006, 358, 126-135, Degorce et al. Curr. Chem. Genomics 2009, 3, 22-32. This technique is used to characterize pharmacological modification of the orexin receptors.
B. In Vitro Testing of OX2R Potency: OX2R IP1
IP1 measurements are performed in CHO-K1 cells stably expressing the full-length human orexin 2 receptor and the aequorin photoprotein. Cells are cultivated in Ham's nutrient mixture F12 medium with 10% fetal calf serum, in a 37° C., 95% humidity and 5% CO2 incubator. The CHO-K1/hOx2 cell mass is expanded to larger cell numbers. The cells are obtained as frozen cells in cryo-vials and stored until use at −150° C. The viability of the cells after thawing is >90%. In preparation for the assay, 24 hours before the assay, the cells are thawed at 37° C. and immediately diluted with cell culture medium. After centrifugation, the cell pellet is resuspended in medium and then distributed into the assay plates with a density of 5000 cells/25 μper well. The plates are incubated for one hour at room temperature to reduce edge effects before they are incubated for 24 hours at 37° C./5% CO2. Compounds are prepared by a 8-point serial dilution in DMSO and a final dilution step into assay buffer (HBSS with 20 mM HEPES, 0.1% BSA and 50 mM LiCl, pH 7.4) to ensure a final DMSO concentration of 1% in the assay. On the day of the assay, cells in the plate are washed twice with 60 μL assay buffer (20 μL buffer remained in the wells after washing), followed by adding 5 μL per well of compounds diluted in assay buffer. After 15 minutes of incubation at room temperature 5 μL per well of Orexin A peptide (final concentration: 0.5 nM) dissolved in assay buffer is added to the assay plate. The assay plate is incubated for 60 minutes at 37° C. Then 5 μl per well of Anti-IP1-Cryptate Tb solution and 5 μl per well of IP1-d2 dilution are added to all well of the plate and the plate is incubated for a further 60 minutes light protected at room temperature. The emission at 615 nm and 665 nm (Excitation wavelength: 320 nm) are measured using an EnVision reader (PerkinElmer). The ratio between the emission at 665 nm and 615 is calculated by the reader.
8-point four parametric non-linear curve fitting and determination of IC50 values and Hill slopes is performed using a regular analysis software e.g. AssayExplorer (Accelrys). In order to establish an agonist concentration independent parameter, Kb values are calculated using the following equation: IC50/((2+(A/EC50)^n)^1/n−1) (with A=concentration agonist, EC50=EC50 agonist, n=Hill slope agonist) (see P. Leff, I. G. Dougall, Trends Pharmacol. Sci. 1993, 14(4),110-112).
`C[C@@H](CNc1ncc(C(F)(F)F)cn1)N(CC(F)F)C(=O)c1c(F)cccc1-c1ncccn1` [Example 5] had a Kb of 143 nM.
The compound `C[C@@H](CNc1ncc(C(F)(F)F)cn1)N(CC(F)F)C(=O)c1cccc(F)c1-c1ncccn1` [Example 3] returned a Kb of 108 nM.
As for `C[C@@H](CNc1ncc(C(F)(F)F)cn1)N(CC(F)F)C(=O)c1cc(F)ccc1-c1ncccn1` [Example 4], the Kb is 70.8 nM.
Under `C[C@@H](CNc1ncc(C(F)(F)F)cn1)N(CC(F)F)C(=O)c1cc(F)cc(F)c1-n1nccn1` [Example 1] stands 251 nM.
Consider `C[C@@H](CNc1ncc(C(F)(F)F)cn1)N(CC(F)F)C(=O)c1cccc(F)c1-n1nccn1` [Example 2], for which the Kb came out at 87.1 nM.
